# Assay results reported in US20260265360A1, “USE OF ANTI-FAM19A5 ANTAGONISTS FOR TREATING HEARING DISORDERS” (NEURACLE SCIENCE CO., LTD., priority 2023, published 2026).
# What was measured:
# [1] = tested on: inner hair cells of mouse cochlear explant; assay: Reversal of FAM19A5-induced inhibition of synaptogenesis (CtBP2 puncta); assay type: cell-based; conditions: FAM19A5 protein 1 μM alone, treated 1 DIV, stained 2 DIV
# Protocol: Cochlear explant were cultured in medium consisting of plating media, which consist of Neurobasal media (Invitrogen), 1% N2 supplement, and 10 μg/mL Ampicillin with culture media with additional 1% FBS.
# Postnatal day 4-5 (P4-5) C57BL/6 mice were sacrificed for inner ear dissection. Mouse head was bisected, and brain tissue was removed. Cochlea was carefully separated the from the extraneous bones in ice-cold HBSS (5 mM HEPES/1.3 mM CaCl2), 0.9 mM MgCl2, pH 7.4) or External solution (1.2 mM CaCl2), 1 mM MgCl2, 5 mM HEPES in HBSS). Then the stria vascularis and spiral bone plate was removed, and cochlea was cut into two to three sections. […]
# Mouse cochlear explant cultures were treated with FAM19A5, FAM19A5 combined with a FAM19A5 antagonist (e.g., described herein, e.g., 1-30 antibody), or a FAM19A5 antagonist (e.g., described herein, e.g., 1-30 antibody) alone at 1 DIV to determine the level of synaptogenesis at 2 DIV by immunostaining CtBP2, a ribbon synapse marker. To quantify the number of CtBP2 puncta of individual inner hair cells, z-stack confocal images were exported in “multi-page” and the number of CtBP2 puncta from each individual inner hair cells were measured using ROI manger and multi-point tool from Fiji (Image J). Number of CtBP2 puncta from five individual inner hair cells were counted per image and 3 z-stack images were measured from each treatment group. […]
# [2] = tested on: mouse primary spiral ganglion neurons; assay: Reversal of FAM19A5-induced inhibition of neurite outgrowth; assay type: cell-based; conditions: FAM19A5 protein 10 μM alone, treated 0 DIV, NF200 staining at 3 DIV
# Protocol: Sprial ganglion neuron were cultured in culture media consisting of high-glucose (4.5 mg/mL) DMEM, 0.1 mg/ml penicillin, 0.1 mg/mL streptomycin, N2 supplement, and 10 µg/mL insulin and was designated here as “5K” because in this media, [K+]=5.4 mM. A depolarizing media, designated as “30K,” in which Na was replaced with equimolar K to raise [K] to 30 mM while maintaining osmolarity was also used.
# Dissociated spiral ganglion cell cultures were prepared from postnatal day 4-5 (P4-5) cochleae and maintained using a procedure modified from the methods described by Bok et al., J Neurosci 23 (3): 777-87 (2003), which is incorporated herein by reference in its entirety. […]
# Neurite outgrowth was quantified by measuring the total length of neurites per neuron. Neurons were stained with NF200 at either 2 or 3 DIV, and neurite lengths were measured using the Fiji (Image J). Individual neurons were manually selected, and neurite lengths were determined using the Simple Neurite Tracer plugin.
# Briefly, mouse primary spiral ganglion neurons (cultured and processed as described in Example 11) were treated with a FAM19A5 protein (10 μM) alone or in combination with an anti-FAM19A5 antibody (1-30) (100 nM) at 0 DIV (day in vitro). […] Then, at 3 DIV, the neurons were stained for neurofilament protein (NF200) expression and the average neurite length quantified.
substance,measurement,setting,value
FAM19A5 protein: FAM19A5 protein added to neuron and cochlear explant cultures to inhibit neurite outgrowth and synaptogenesis,number of CtBP2 puncta in inner hair cells vs control group,[1],significantly decreased
same,total neurite length vs non-treated cells,[2],significantly reduced
